Measured values as given in patent US9944927B2, “Therapeutic applications of p53 isoforms in regenerative medicine, aging and cancer” (The United States of America as Represented by the …, priority 2007, dated 2018).

Columns and labels:
Assay type in all cases: cell-based, human
PAI-1 = assay: real-time qRT-PCR of PAI-1 mRNA; settings: siRNA-transfected early-passage WI-38, day 7
Text: For quantitative measurement of PAI-1 mRNA, the SYBR Green PCR Master Mix (Applied Biosystems) was used with the following primers: 5′-CTC CTG GTT CTG CCC AAG T-3′ (SEQ ID NO:15) and 5′-CAGGTTCTCTAGGGGCTTCC-3′ (SEQ ID NO:16) for PAI-1; and 5′-TTC TGG CCT GGA GGC TAT C-3′ (SEQ ID NO:17) and 5′-TCAGGAAATTTGACTTTCCATTC-3′ (SEQ ID NO:18) for β-2 microglobulin as an internal control. For IL-8 and IL-8R, the Taqman Universal PCR Master Mix (Applied Biosystems) was used with the following sets of probe and primers purchased from Applied Biosystems: IL-8 (catalog #4331182, Hs00174103_m1); IL-8R (catalog #4331182, Hs001174304_m1); and 18S endogenous control (catalog #4319413).

caspase-3 and PARP = assay: apoptosis immunoblot of caspase-3 and PARP; settings: for cleaved caspase-3 or PARP (apoptosis): siRNA-transfected MRC-5 and WI-38
Protocol: Cells or tissues were lysed in RIPA buffer [10 mM Tris-HCl, pH 7.5, 150 mM NaCl, 0.1% SDS, 0.1% sodium deoxycholate, 1 mM EDTA, 1% NP-40, complete protease inhibitors (Roche, Indianapolis, Ind.), phoshatase inhibitor cocktail 1 and 2 (Sigma-Aldrich)]. SDS-PAGE, transfer to nitrocellulose or PVDF membranes (Bio-Rad, Hercules, Calif.), incubation with antibodies, and signal detection followed the standard procedures using ECL detection (Amersham Biosciences, Piscataway, N.J.) or SuperSignal West Dura Extended Duration system (Pierce Biotechnology, Rockford, Ill.). The quantitative analysis of the immunoblot data was performed using the ImageJ 1.40 g software (on the world wide web at rsb.info.nih.gov/ij/).
A polyclonal antibody specifically recognizing Δ133p53 (MAP4) was raised at Moravian Biotechnology (Brno, Czech Republic) in rabbits injected with a mixture of peptides, MFCQLAKTC (SEQ ID NO:13) and FCQLAKTCP (SEQ ID NO: 14), which were synthesized as Multiple Antigenic Peptide by Dr. G. Bloomberg (University of Bristol, Bristol, UK). The other primary antibodies used were: TLQ40^5 for p53β; CM1^5, DO-12 (Millipore, Billerica, Mass.) and DO-1 (Santa Cruz Biotechnology, Santa Cruz, Calif.) for p53; EA10 (Carbiochem, San Diego, Calif.) for p21^WAF1; SMP14 (Santa Cruz Biotechnology) for MDM2; 8G10 (Cell Signaling Technology, Danvers, Mass.) for caspase-3; M2 monoclonal antibody (Sigma-Aldrich) for FLAG tag; AC-15 (Sigma-Aldrich) for β-actin; MAB3450 (Chemicon International, Temecula, Calif.) for HP1-γ; anti-phospho-p53 (Ser15) (Cell Signaling Technology); anti-PARP (Cell Signaling Technology); FITC-conjugated anti-CD8 (BD Biosciences, Franklin Lakes, N.J.); APC-conjugated anti-CD28 (BD Biosciences); and PE-conjugated anti-CD57 (Abcam, Cambridge, Mass.). Horseradish peroxidase-conjugated goat anti-mouse or anti-rabbit antibodies (Santa Cruz Biotechnology) were used as secondary antibodies in immunoblots.

miR-34a = assay: real-time qRT-PCR of miR-34a expression; settings: for miR-34a expression at Δ133p53 knockdown-induced senescence: siRNA-transfected MRC-5 and WI-38
Protocol: (§1) RNA samples were prepared by using Trizol (Invitrogen). Reverse transcriptase reactions were performed using TagMan miRNA reverse transcription kit (Applied Biosystems, cat. no. 4366596) and a miR-34a-specific primer. The TagMan miRNA assay kit for miR-34a (Applied Biosystems, cat. no. 4373278) was used according to the supplier's protocol. Real-time PCR reactions were performed in triplicate. RNU66 (Applied Biosystems, cat. no. 4373382) was used as a control for quantification. Based on Ct (cycle threshold) values from miR-34a and RNU66 detections, normalized miR-34a expression was calculated by using the […] method according to the supplier's protocol (protocol no. 4310255B and User Bulletin no. 4303859B found on the world wide web at appliedbiosystems.com/index.cfm).
as §1, with “TaqMan microRNA” for “TagMan miRNA”

[1] = test system: MRC-5 and WI-38 fibroblasts; assay: cellular senescence: senescent growth arrest, SA-β-gal staining; settings: siRNA-transfected early-passage MRC-5 and WI-38, day 7
p21^WAF1 and MDM2 = assay: immunoblot of p53 transcriptional targets p21WAF1 and MDM2; settings: siRNA-transfected early-passage MRC-5 and WI-38, day 7
Protocol: Cells were lysed in RIPA buffer [10 mM Tris-HCl, pH 7.5, 150 mM NaCl, 0.1% SDS, 0.1% sodium deoxycholate, 1 mM EDTA, 1% NP-40, complete protease inhibitors (Roche), phosphatase inhibitor cocktail 1 and 2 (Sigma)]. Lysates were separated by SDS-PAGE and transferred to nitrocellulose membranes (BIO-RAD) Immunoblot analysis was accomplished according to standard procedures using ECL detection (Amersham Bioscience) or SuperSignal West Dura Extended Duration system (PIERCE).
A polyclonal antibody specifically recognizing Δ133p53 (MAP4) was raised at Moravian Biotechnology (Brno, Czech Republic) in rabbits injected with a mixture of peptides MFCQLAKTC (SEQ ID NO:13) and FCQLAKTCP (SEQ ID NO:14), which were synthesized as Multiple Antigenic Peptide by G. Bloomberg (University of Bristol, Bristol, UK). […]
Cells or tissues were lysed in RIPA buffer [10 mM Tris-HCl, pH 7.5, 150 mM NaCl, 0.1% SDS, 0.1% sodium deoxycholate, 1 mM EDTA, 1% NP-40, complete protease inhibitors (Roche, Indianapolis, Ind.), phoshatase inhibitor cocktail 1 and 2 (Sigma-Aldrich)]. […] The quantitative analysis of the immunoblot data was performed using the ImageJ 1.40 g software (on the world wide web at rsb.info.nih.gov/ij/). […]

[2] = test system: MRC-5 and WI-38 fibroblasts; assay: BrdU incorporation assay; settings: siRNA-transfected early-passage MRC-5 and WI-38, day 7; 10 μM BrdU 24 h
Protocol: (§2) For cell proliferation assay, 2.4×10^5 cells per well were plated into 12-well plates. These cells were collected and counted daily for a week using a hematocytometer. The experiments were performed at least twice and data at each time point were in triplicate. For examining cellular replicative lifespan, the number of cells was counted at each passage, and the number of population doublings (PDL) achieved between passages was determined by log2 (number of cells obtained/number of cells inoculated) (Michishita, E. et al., Mol. Biol. Cell 16:4623 (2005); Pereira-Smith, O. M. et al., Somatic Cell Genet. 7:411 (1981)). […] The incorporated BrdU was detected using an anti-BrdU monoclonal antibody (Amersham Biosciences) and observed with a fluorescent microscope. […]
(§3) For cell proliferation assay, 2.4×10^5 cells per well were plated into 12-well plates. These cells were collected and counted daily for a week using a hematocytometer. […] For examining cellular replicative lifespan, the number of cells was counted at each passage, and the number of population doublings (PDL) achieved between passages was determined by log2 (number of cells obtained/number of cells inoculated)^29. […] The incorporated BrdU was detected using an anti-BrdU monoclonal antibody (Amersham Biosciences) and observed with a fluorescent microscope. […]

hTERT/NHF cells = assay: Nutlin-3A-induced senescence, SA-β-gal assay; settings: 10 μM Nutlin-3A for 72 h
[3] = test system: MRC-5 and WI-38 fibroblasts; assay: cellular replicative lifespan (cumulative population doublings)
Protocol: as §2, §3

5′-UGUUCACUUGUGCCCUGACUUUCAA-3′ [Δ133si-1]
PAI-1 expression (PAI-1): upregulation
cleaved caspase-3 or PARP (apoptosis) (caspase-3 and PARP): No cleaved caspase-3 or PARP was observed
miR-34a expression at Δ133p53 knockdown-induced senescence (miR-34a): not upregulated
SA-β-gal activity [1]: induction of SA-β-gal activity
p21^WAF1 expression (p21^WAF1 and MDM2): upregulation of p21^WAF1
BrdU incorporation [2]: attenuation of BrdU incorporation

COc1cccc2c1C(=O)c1c(O)c3c(c(O)c1C2=O)C[C@@](O)(C(=O)CO)C[C@@H]3O[C@H]1C[C@H](N)[C@H](O)[C@H](C)O1 [doxorubicin, reference compound]
apoptosis (caspase-3, PARP immunoblot) (caspase-3 and PARP; RKO cells, positive control): showing apoptosis

COc1ccc(C2=N[C@@H](c3ccc(Cl)cc3)[C@@H](c3ccc(Cl)cc3)N2C(=O)N2CCNC(=O)C2)c(OC(C)C)c1 [Nutlin-3a, reference compound]
miR-34a expression (miR-34a; hTERT/NHF cells, p53 shRNA, or 10 μM Nutlin-3a for 36 h): induced

5′-CUU GUG CCC UGA CUU UCA A[dT][dT]-3′ [Δ133si-2]
PAI-1 expression (PAI-1): upregulation
cleaved caspase-3 or PARP (apoptosis) (caspase-3 and PARP): No cleaved caspase-3 or PARP was observed
miR-34a expression at Δ133p53 knockdown-induced senescence (miR-34a): not upregulated
SA-β-gal activity [1]: induction of SA-β-gal activity
p21^WAF1 expression (p21^WAF1 and MDM2): upregulation of p21^WAF1
BrdU incorporation [2]: attenuation of BrdU incorporation

5′-AACAACCAGCUAAGACACUGCCA-3′ (antisense AACAACCAGCUAAGACACUGCCA; all 2'-O-methyl, backbone not given here) [antisense miR-34a]
inhibition of Nutlin-3A-induced senescence (hTERT/NHF cells): approximately 50%
miR-34a expression after antisense transfection (miR-34a; late-passage MRC-5, antisense 40 nM): downregulation of miR-34a expression was confirmed
replicative lifespan ([3]; late-passage MRC-5, antisense 40 nM transfected every 4 days): extended the replicative lifespan
extension of replicative lifespan ([3]; late-passage MRC-5 at passage 58, antisense transfected every 4 days): approximately five
